Series [1] in a line: Body weight, bleomycin-induced mice, 7-d modeling. It counts as in vivo, C57 mice. To be noted: for Body weight decreased by: day 1 to day 28. The procedure: Animals of 7-d modeling were randomly divided into 7 groups according to the table below, 6 animals per control group and 12 animals per test group.
(§1) Drug administration began 24 h or 7 d after modeling. […] The day of the first administration was counted as D1, the next day as D2, and so forth. The normal groups and Model groups were given 200 µL of normal saline daily by gavage administration.
(§2) All the animals were observed once daily during the experiment for death or dying, feces, ingestion, mental state and behavior and activity. Abnormalities were recorded in time. All the animals were weighed once before grouping and once before each dose.
In this experiment, 105 C57 mice were randomly selected and subjected to organ drip administration of a single dose of bleomycin at 2.5 mg/kg for 24 h or 7 d for induction. After 7 days of induction, 3 model mice were randomly selected and dissected to determine whether the modeling was successful. After modeling, the survival of the mice was recorded. The living states of the mice were observed and their body weight was measured at a fixed time.
A normal control group comprised 6 mice.

The test system of series [2] is bleomycin-induced mouse lung disease model. The series is described as follows: Blood gas analysis, 24-h modeling. The format is in vivo, C57 mice. To be noted: for BEect / HCO3^- / PCO2: arterial blood after administration ended. Here is the method:
(§3) Animals of 24-h modeling were randomly divided into 5 groups according to the table below, 3 animals per control group and 5 animals per test group.
as §1
1. After being anaesthetized, a mouse was fixed to a board in a supine position.
2. After the skin was disinfected with alcohol, a midline cut of about 1.5 cm was made downward in the skin of the neck. The connective tissue between the sternohyoid muscle and the stemothyroid muscle was separated along the anterior border of the sternomastoid muscle with a tissue forceps. The pulsating common carotid artery could be seen on the deep right side of the trachea. A common carotid artery of about 1.5 cm in length was separated. The distal end was ligated with silk thread, and the proximal end was clipped with an artery clip and threaded with a silk thread for later use. The mouse board was placed under a dissecting microscope, and a V-shaped centripetal incision was gently made in a site near the distal end of the artery with a microscopy scissor. A PE microcatheter was inserted into the artery and fixed by making a knot with silk thread. The artery clip was removed, and 0.1-0.2 mL of blood was collected with a 1 mL syringe. The proximal end was clipped with an artery clip, and the syringe was removed. The blood was immediately analyzed on an AbboTTi-STAT blood gas microanalyzer.
In a blood gas analysis, the H^+ concentration in the blood and gases (mainly CO2 and O2) dissolved in the blood can be determined to directly reflect the function of pulmonary ventilation and the acid-base balance state. They are used to determine in the organism whether the acid-base balance is upset, whether anoxia occurred, the level of anoxia, and so forth.

Series [3] has the same test system. The series is described as follows: Lung HE pathological analysis (Ashcroft score), 24-h modeling. The format is in vivo, C57 mice. The settings on record: for HE score (pulmonary fibrosis, Ashcroft): 15 fields of view. The procedure:
as §3, §1
1. […] Specifically, a mold was prepared first, and then the tissue was laid flat at the bottom of the mold; after the section face was arranged facedown, the embedding box cover was put on the mold; molten wax was poured into the mold until it overflowed the mold, and then the mold was gently lifted up and laid flat in a freezing platform; after being rapidly cooled and frozen for about 10 min, the mold was took out. • 6) Sectioning method
2. HE staining • 1) A flat section was selected for HE staining. • 2) The section was dewaxed in xylene I for 20 min. • 3) The section was dewaxed in xylene II for 20 min. • 4) The section was soaked in absolute ethanol for 10 min. • 5) Stepwise rehydrating, in absolute ethanol for 5 min, in 90% ethanol for 5 min, in 80% ethanol for 5 min, and in […] for 5 min; and a water wash. • 6) Staining with hematoxylin for 3-5 min. A water wash. • 7) Differentiating with 1% HCl-[…] for 5-10 s. A water wash, and bluing. • 8) Staining with eosin for 30-60 s. A water wash. • 9) Washing with 80% ethanol for 3-5 s, with 95% ethanol for 3-5 s, and with absolute ethanol for 3-5 s. • 10) Coverslipping with neutral resin, observing under a microscope, and photographing.
HE sectioning: 3 sections were consecutively made; flat sections of complete tissue were selected for HE staining; each of the sections was photographed in 3 randomly selected fields of view at 200x magnification. The obtained images were scored.
The general standard Ashcroft scoring method for pulmonary fibrosis tissues was adopted in HE scoring. The HE pathological analysis is an outcome evaluation for irreversible pulmonary fibrosis that develops in interstitial lung disease models.
For 5 animals from each of the 24-h modeling groups, a total of 15 HE fields of view were scored. […] According to the scoring criteria, a score below 3 points indicates there has been no significant structural change accompanying in the lung tissues.

Series [4] in a line: Toxic or side effects on mice on gavage administration. To be noted: BS 36, 90 and 180 mg/kg. The format is in vivo. The procedure: Accordingly, the above dosages were selected as the dosages for administration in this experiment,
as §2

Where [5] appears, read: 24-h modeling, BS 90 mg/kg gavage daily.
Where [6] appears, read: Dex 1-1.5 mg/kg i.p. every two days.
Setting [7] is: 24-h modeling, Dex 1-1.5 mg/kg i.p. every two days.

Entries after “also recorded” stand apart in the source; their conditions may differ.

As to `O=c1c2ccccc2[se]n1CCCCn1[se]c2ccccc2c1=O` [BS, 1,4-[bis(1,2-benzisoselenazol-3(2H)-one)]butane], the Body weight in series [1] (BSH: BS 180 mg/kg gavage daily, D1) was 19.88 ± 0.47 g; in series [1] (BSH: BS 180 mg/kg gavage daily, D7), 19.45 ± 0.62 g; in series [1] (BSH: BS 180 mg/kg gavage daily, D14), 19.26 ± 0.44 g; in series [1] (BSH: BS 180 mg/kg gavage daily, D21), 19.13 ± 0.54 g; in series [1] (BSH: BS 180 mg/kg gavage daily, D28), 19.19 ± 0.71 g; in series [1] (BSL: BS 36 mg/kg gavage daily, D1) it was 17.80 ± 0.72 g. Further, the Body weight in series [1] (BSL: BS 36 mg/kg gavage daily, D7) was determined as 17.49 ± 0.84 g; in series [1] (BSL: BS 36 mg/kg gavage daily, D14), 17.37 ± 0.80 g; in series [1] (BSL: BS 36 mg/kg gavage daily, D21), 17.23 ± 0.76 g; in series [1] (BSL: BS 36 mg/kg gavage daily, D28), 17.23 ± 0.82 g; in series [1] (BSM: BS 90 mg/kg gavage daily, D1), 18.20 ± 0.87 g; in series [1] (BSM: BS 90 mg/kg gavage daily, D7) it was 17.89 ± 0.92 g. The Body weight in series [1] (BSM: BS 90 mg/kg gavage daily, D14) is 17.63 ± 0.79 g; in series [1] (BSM: BS 90 mg/kg gavage daily, D21) it was 17.46 ± 0.73 g; in series [1] (BSM: BS 90 mg/kg gavage daily, D28), 17.41 ± 0.72 g. Besides, the entries for the “Body weight decreased by” value in series [1] (BSH: BS 180 mg/kg gavage daily), in series [1] (BSL: BS 36 mg/kg gavage daily) and in series [1] (BSM: BS 90 mg/kg gavage daily) were 3.62%, 3.39% and 4.53%, respectively. This molecule had a BEect in series [2] (BS 90 mg/kg gavage daily) of -9.40 ± 1.14 mmol/L. The “HCO3^-” value in series [2] (BS 90 mg/kg gavage daily) was determined as 30.00 ± 1.20 mmol/L. In series [2] (BS 90 mg/kg gavage daily), the PCO2 came to 30.84±1.21 mmHg. Moreover, the “Effect on blood gas analysis (in words)” value in series [2] (BS 90 mg/kg, better than Dex (1-1.5 mg/kg) in general) was “significant improvements to the function of pulmonary ventilation and the acid-base balance states”. Besides, in series [3] (24-h model, early stage of pulmonary fibrosis, BS 90 mg/kg), the “Effect on lung tissue structure, HE (in words)” value was “significantly reduce structural changes in lung tissues”. For the same molecule, the “HE score and benefit rate, >4 points (fields/total)” value in series [3] (setting [5]) is reported as 3/15. The “HE score and benefit rate, >4 points (percent of fields)” value in series [3] (setting [5]) worked out at 20.0%. In series [3] (setting [5]), the “HE score and benefit rate, >5, points (fields/total)” value was 0/15 0/15. Further, the “HE score and benefit rate, >5, points (percent of fields)” value in series [3] (setting [5]) is listed as 0% 0%. For the same molecule, the “HE score and benefit rate, ≥3 points (fields/total)” value in series [3] (setting [5]) is recorded as 12/15. Also, in series [3] (setting [5]), the “HE score and benefit rate, ≥3 points (percent of fields)” value is 80.0%. Further, in series [3] (setting [5]), the “HE score (pulmonary fibrosis, Ashcroft)” value turned out to be 3.00 ± 0.65. The “Clear lung tissue damage (HE score up to 5 points), in words” value in series [3] (24-h modeling, after 35 days of administration, Dex 1-1.5 mg/kg, BS 90 mg/kg) is listed as “no clear lung tissue damage occurred”. Besides, the “Toxic or side effects (in words)” value in series [4] was “no toxic and side effects; also recorded: no significant toxic or side effects”.
In series [1] (Dex 1-1.5 mg/kg i.p. every two days, D1), `C[C@@H]1C[C@H]2[C@@H]3CCC4=CC(=O)C=C[C@]4(C)[C@@]3(F)[C@@H](O)C[C@]2(C)[C@@]1(O)C(=O)CO` [Dex, dexamethasone, reference compound] registered a Body weight of 17.79 ± 0.89 g. In series [1] (Dex 1-1.5 mg/kg i.p. every two days, D7), this molecule displayed a Body weight of 17.61 ± 1.02 g. Moreover, in series [1] (Dex 1-1.5 mg/kg i.p. every two days, D14), the Body weight was determined as 17.45 ± 0.96 g. The same molecule came in with a Body weight in series [1] (Dex 1-1.5 mg/kg i.p. every two days, D21) of 17.43 ± 0.92 g. This molecule came in with a Body weight in series [1] (Dex 1-1.5 mg/kg i.p. every two days, D28) of 17.38 ± 0.85 g. Moreover, the “Body weight decreased by” value in series [1] (setting [6]) amounted to 2.42%. Also, in series [2] (setting [6]), the BEect is -9.20 ± 1.30 mmol/L, the “HCO3^-” value was 28.28 ± 1.56 mmol/L and the PCO2 is on record as 32.52±2.73 mmHg. In series [3] (setting [7]), the “HE score and benefit rate, >4 points (percent of fields)” value turned out to be 0%; the “HE score and benefit rate, >5, points (percent of fields)” value was 0% 0%; the “HE score and benefit rate, ≥3 points (percent of fields)” value was 53.3%; the “HE score (pulmonary fibrosis, Ashcroft)” value is 2.53 ± 0.52.

The values are drawn from patent publication US20230210819A1, “USE OF BENZISOSELAZOLE DERIVATIVE FOR ANTI-CORONAVIRUS AND CONTROL OF INTERSTITIAL LUNG DISEASE (ILD) RELATED TO CORONAVIRUS” (SHANGHAI YUANXI MEDICINE CORP., priority 2020, published 2023).
